Data taken from ChEMBL document CHEMBL4373715, “Discovery and Biological Evaluations of Halogenated 2,4-Diphenyl Indeno[1,2-b]pyridinol Derivatives as Potent Topoisomerase IIα-Targeted Chemotherapeutic Agents for Breast Cancer” (J Med Chem, 2019).
Counter-ions that a name gives are not always drawn. Calls of active or inactive are those of the source. The rule behind the calls is not given here.

Key:
[1] = system: HCT-15; assay: Antiproliferative activity against human HCT15 cells measured after 72 hrs by EZ-Cytox assay; format: functional, cell-based; settings: HCT-15, 72 h
[2] = system: T47D; assay: Antiproliferative activity against human T47D cells measured after 72 hrs by EZ-Cytox assay; format: functional, cell-based
[3] = system: DU-145; assay: Antiproliferative activity against human DU145 cells measured after 72 hrs by EZ-Cytox assay; format: functional, cell-based; settings: DU-145, 72 h
[4] = system: HeLa; assay: Antiproliferative activity against human HeLa cells measured after 72 hrs by EZ-Cytox assay; format: functional, cell-based
[5] = molecular target: T1, DNA topoisomerase 1 (Homo sapiens) (UniProt P11387); assay: Inhibition of recombinant human topoisomerase 1-mediated relaxation of supercoiled pBR322 DNA at 100 uM measured after 30 mins by ethidium bromide staining based agarose gel electrophoresis relative to control
T1 sequence (whole entry): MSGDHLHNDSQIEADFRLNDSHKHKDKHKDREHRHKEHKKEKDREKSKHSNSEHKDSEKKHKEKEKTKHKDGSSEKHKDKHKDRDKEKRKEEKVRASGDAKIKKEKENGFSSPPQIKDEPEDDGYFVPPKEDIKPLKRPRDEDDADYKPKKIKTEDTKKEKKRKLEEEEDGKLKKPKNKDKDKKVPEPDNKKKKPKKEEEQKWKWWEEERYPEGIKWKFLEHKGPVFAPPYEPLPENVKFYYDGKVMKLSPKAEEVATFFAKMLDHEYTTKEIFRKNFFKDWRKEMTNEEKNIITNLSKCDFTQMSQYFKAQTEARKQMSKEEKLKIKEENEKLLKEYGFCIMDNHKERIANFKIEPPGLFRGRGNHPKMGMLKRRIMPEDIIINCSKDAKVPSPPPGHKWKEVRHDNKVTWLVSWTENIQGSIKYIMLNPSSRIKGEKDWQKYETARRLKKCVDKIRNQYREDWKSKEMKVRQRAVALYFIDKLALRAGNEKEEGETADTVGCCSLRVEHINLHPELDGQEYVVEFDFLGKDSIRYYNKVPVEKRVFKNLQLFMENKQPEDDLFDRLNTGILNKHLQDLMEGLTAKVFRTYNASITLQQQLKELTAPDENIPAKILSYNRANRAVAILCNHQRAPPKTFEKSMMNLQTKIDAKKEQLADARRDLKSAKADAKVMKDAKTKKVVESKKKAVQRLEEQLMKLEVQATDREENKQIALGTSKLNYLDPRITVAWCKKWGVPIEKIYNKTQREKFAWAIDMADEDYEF

[6] = molecular target: T1, DNA topoisomerase 1 (Homo sapiens); assay: Inhibition of recombinant human topoisomerase 1-mediated relaxation of supercoiled pBR322 DNA at 20 uM measured after 30 mins by ethidium bromide staining based agarose gel electrophoresis relative to control
[7] = molecular target: DNA topoisomerase 2-alpha (Homo sapiens) (UniProt P11388); assay: Inhibition of recombinant human topoisomerase 2alpha-mediated relaxation of supercoiled pBR322 DNA at 100 uM measured after 30 mins by ethidium bromide staining based agarose gel electrophoresis relative to control
[8] = molecular target: DNA topoisomerase 2-alpha (Homo sapiens) (UniProt P11388); assay: Inhibition of recombinant human topoisomerase 2alpha-mediated relaxation of supercoiled pBR322 DNA at 20 uM measured after 30 mins by ethidium bromide staining based agarose gel electrophoresis relative to control
[9] = system: MDA-MB-231; assay: Antiproliferative activity against human MDA-MB-231 cells measured after 72 hrs by Ez-cytox assay; format: functional, cell-based; settings: MDA-MB-231, 72 h
[10] = system: MDA-MB-436; assay: Antiproliferative activity against human MDA-MB-436 cells measured after 72 hrs by Ez-cytox assay; format: functional, cell-based; settings: MDA-MB-436, 72 h
[11] = system: HCC70; assay: Antiproliferative activity against human HCC70 cells measured after 72 hrs by Ez-cytox assay; format: functional, cell-based; settings: HCC70, 72 h
[12] = system: Calf thymus DNA; assay: Inhibition of EtBr binding to calf thymus DNA measured after 30 mins by fluorescence assay; format: nucleic-acid assay; settings: Bos taurus
[13] = molecular target: DNA topoisomerase 2-alpha (Homo sapiens) (UniProt P11388); assay: Poison activity at topoisomerase-2 alpha in human T47D cells assessed as stabilization of enzyme-DNA cleavage complex by measuring reduction in topo-2alpha level at 50 uM measured after 2 hrs by Western blot analysis; format: cell-based
[14] = system: T47D; assay: Induction of DNA damage in human T47D cells at 5 to 10 uM measured after 24 hrs by comet assay; format: functional, cell-based

DNA topoisomerase 2-alpha (Homo sapiens), sequence (P11388 whole entry): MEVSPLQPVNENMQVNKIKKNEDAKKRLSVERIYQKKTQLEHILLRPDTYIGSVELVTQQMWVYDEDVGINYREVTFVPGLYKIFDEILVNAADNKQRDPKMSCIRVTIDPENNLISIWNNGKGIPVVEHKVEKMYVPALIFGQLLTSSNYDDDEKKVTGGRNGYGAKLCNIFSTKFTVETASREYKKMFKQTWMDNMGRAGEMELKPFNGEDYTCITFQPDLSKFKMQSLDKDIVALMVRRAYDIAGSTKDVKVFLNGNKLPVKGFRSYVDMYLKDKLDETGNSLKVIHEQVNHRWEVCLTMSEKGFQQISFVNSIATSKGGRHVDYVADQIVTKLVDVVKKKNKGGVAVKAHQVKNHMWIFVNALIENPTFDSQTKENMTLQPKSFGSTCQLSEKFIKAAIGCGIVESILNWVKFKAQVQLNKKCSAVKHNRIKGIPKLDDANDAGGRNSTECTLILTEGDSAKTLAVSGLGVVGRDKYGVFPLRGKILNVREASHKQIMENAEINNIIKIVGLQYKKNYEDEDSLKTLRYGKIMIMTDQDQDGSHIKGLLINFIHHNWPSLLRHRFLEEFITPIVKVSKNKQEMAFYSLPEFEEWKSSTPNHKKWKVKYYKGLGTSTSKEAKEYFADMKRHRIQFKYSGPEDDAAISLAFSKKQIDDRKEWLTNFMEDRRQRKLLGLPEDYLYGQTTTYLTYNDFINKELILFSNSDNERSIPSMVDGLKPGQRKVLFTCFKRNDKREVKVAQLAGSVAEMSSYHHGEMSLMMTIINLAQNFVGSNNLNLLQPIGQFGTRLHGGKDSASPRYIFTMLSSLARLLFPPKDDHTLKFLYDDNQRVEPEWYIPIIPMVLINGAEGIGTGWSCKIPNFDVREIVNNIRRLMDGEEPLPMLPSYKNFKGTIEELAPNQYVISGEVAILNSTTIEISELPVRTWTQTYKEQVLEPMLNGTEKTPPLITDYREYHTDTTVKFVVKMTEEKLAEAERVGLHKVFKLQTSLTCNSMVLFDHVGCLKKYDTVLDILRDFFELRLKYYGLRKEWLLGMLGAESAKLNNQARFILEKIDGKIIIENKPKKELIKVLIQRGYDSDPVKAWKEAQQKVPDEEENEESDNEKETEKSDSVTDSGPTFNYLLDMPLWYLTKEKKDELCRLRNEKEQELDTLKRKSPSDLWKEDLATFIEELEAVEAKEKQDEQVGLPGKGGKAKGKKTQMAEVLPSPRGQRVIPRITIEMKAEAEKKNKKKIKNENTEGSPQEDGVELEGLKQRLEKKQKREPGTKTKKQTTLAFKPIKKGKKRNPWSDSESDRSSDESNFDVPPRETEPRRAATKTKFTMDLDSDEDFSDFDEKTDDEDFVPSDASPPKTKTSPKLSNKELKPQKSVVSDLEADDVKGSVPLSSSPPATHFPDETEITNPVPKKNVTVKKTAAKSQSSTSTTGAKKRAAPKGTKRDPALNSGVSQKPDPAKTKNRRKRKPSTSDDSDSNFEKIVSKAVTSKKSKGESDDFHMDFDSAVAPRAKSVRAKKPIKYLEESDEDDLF

Row | inhibition [5] [%] | inhibition [6] [%] | inhibition [7] [%] | inhibition [8] [%] | inhibition [12] | Compound | IC50 [1] [nM] | IC50 [2] [nM] | IC50 [3] [nM] | IC50 [4] [nM] | IC50 [9] [nM] | IC50 [10] [nM] | IC50 [11] [nM] | IC50 ([11]; read-out: IC50) [nM] | Activity [13] | Activity [14]
1 | 37 | 7.4 | 55.9 | 3.5 | – | Oc1ccc2c(c1)Cc1c(-c3ccccc3Cl)cc(-c3ccccc3O)nc1-2 | 3130 | 3820 | 4430 | 17900 | – | – | – | – | – | –
2 | 100 | 0 | 83.1 | 0.5 | – | Oc1ccc(-c2cc(-c3ccc(C(F)(F)F)cc3)nc3c2Cc2ccc(O)cc2-3)cc1 | 5030 | 1360 | 2980 | 5510 | – | – | – | – | – | –
3 | 87.4 | 0 | 83.2 | 1.1 | – | Oc1ccc(-c2cc(-c3ccc(C(F)(F)F)cc3)nc3c2Cc2cc(O)ccc2-3)cc1 | 2630 | 1910 | 1140 | 4800 | – | – | – | – | – | –
4 | 79.3 | 0.2 | 80.2 | 3.6 | – | Oc1cccc(-c2cc(-c3ccccc3Cl)c3c(n2)-c2c(O)cccc2C3)c1 | 2430 | 2510 | 3210 | 3640 | – | – | – | – | – | –
5 | 59.1 | 14.8 | 74.1 | 38.2 | – | Oc1ccc2c(c1)-c1nc(-c3ccccc3O)cc(-c3ccccc3Cl)c1C2 | 7980 | 3280 | 3990 | > 50000 | – | – | – | – | – | –
6 | – | – | – | – | – | CC[C@@]1(O)C(=O)OCc2c1cc1n(c2=O)Cc2cc3ccccc3nc2-1 [CAMPTOTHECIN] | 49 to 350 | 250 to 1980 | 50 to 810 | 500 to 1390 | 24000 | 31900 | 44 | – | – | –
7 | 65.7 | 0 | 89.5 | 2.1 | – | Oc1cccc(-c2cc(-c3ccccc3C(F)(F)F)nc3c2Cc2c(O)cccc2-3)c1 | 3390 | 1460 | 1800 | 3790 | – | – | – | – | – | –
8 | 77.4 | 6.3 | 91.3 | 20 | – | Oc1cccc(-c2cc(-c3ccccc3Cl)c3c(n2)-c2ccc(O)cc2C3)c1 | 3820 | 2840 | 2350 | 6480 | – | – | – | – | – | –
9 | – | – | – | – | Dose-dependent effect | COc1cc(NS(C)(=O)=O)ccc1Nc1c2ccccc2nc2ccccc12 | – | – | – | – | – | – | – | – | – | –
10 | 62.9 | 0 | 97 | 13 | – | Oc1ccc(-c2cc(-c3ccccc3Cl)c3c(n2)-c2cccc(O)c2C3)cc1 | 2420 | 1730 | 5840 | 3720 | – | – | – | – | – | –
11 | 55.9 | 6.3 | 93.2 | 13.8 | – | Oc1cccc(-c2cc(-c3ccccc3Cl)c3c(n2)-c2cc(O)ccc2C3)c1 | 2500 | 2910 | 2030 | 5000 | – | – | – | – | – | –
12 | – | – | – | – | – | COc1cccc2c1C(=O)c1c(O)c3c(c(O)c1C2=O)C[C@@](O)(C(=O)CO)C[C@@H]3O[C@H]1C[C@H](N)[C@H](O)[C@H](C)O1 [DOXORUBICIN HYDROCHLORIDE] | 740 to 2020 | 340 to 1500 | 870 to 2960 | 800 to 4590 | 5180 | 2030 | – | 1450 | – | –
13 | – | – | – | – | – | COc1cc([C@@H]2c3cc4c(cc3[C@@H](O[C@@H]3O[C@@H]5CO[C@@H](C)O[C@H]5[C@H](O)[C@H]3O)[C@H]3COC(=O)[C@H]23)OCO4)cc(OC)c1O [ETOPOSIDE] | 1270 to 6970 | 1640 to 5540 | 1150 to 4490 | 4130 to 9750 | > 50000 | 39400 | – | > 50000 | Active | Active
14 | 0.5 | – | 100 | 24.1 | – | Oc1cccc(-c2cc(-c3cccc(Cl)c3)nc3c2Cc2c(O)cccc2-3)c1 | 1130 | 1520 | 1490 | 3310 | – | – | – | – | – | –
15 | 55.8 | 0.3 | 88.7 | 4.6 | – | Oc1ccc(-c2cc(-c3cccc(C(F)(F)F)c3)nc3c2Cc2cc(O)ccc2-3)cc1 | 3470 | 1430 | 1900 | 4520 | – | – | – | – | – | –
16 | 8.8 | – | 42.8 | 8.3 | – | Oc1ccc(-c2cc(-c3ccccc3)c3c(n2)-c2ccc(O)cc2C3)cc1 | 1270 | 730 | 710 | 2670 | – | – | – | – | – | –
17 | 15.9 | – | 65.2 | 3.3 | – | Oc1cccc(-c2cc(-c3ccccc3C(F)(F)F)nc3c2Cc2cccc(O)c2-3)c1 | 2100 | 1750 | 1140 | 4690 | – | – | – | – | – | –
18 | 0 | – | 80.2 | 37.8 | – | Oc1cccc(-c2cc(-c3cccc(Cl)c3)nc3c2Cc2cc(O)ccc2-3)c1 | 1620 | 860 | 3210 | 5990 | – | – | – | – | – | –
19 | 23.9 | – | 56.5 | 1.6 | – | Oc1ccccc1-c1cc(-c2ccccc2Cl)c2c(n1)-c1c(O)cccc1C2 | 2030 | 2930 | 5670 | > 50000 | – | – | – | – | – | –
20 | 0.3 | – | 94.2 | 5.3 | – | Oc1ccccc1-c1cc(-c2cccc(C(F)(F)F)c2)nc2c1Cc1c(O)cccc1-2 | 3340 | 770 | 1870 | 4250 | – | – | – | – | – | –
21 | 32.8 | 0 | 91.3 | 11.1 | – | Oc1ccc(-c2cc(-c3ccc(C(F)(F)F)cc3)nc3c2Cc2c(O)cccc2-3)cc1 | > 50000 | 2010 | 2110 | 6540 | – | – | – | – | – | –
22 | 10.3 | – | 66.9 | 0.8 | – | Oc1ccc(-c2cc(-c3ccccc3Cl)c3c(n2)-c2c(O)cccc2C3)cc1 | 1050 | 960 | 860 | 2790 | – | – | – | – | – | –
23 | 0 | – | 97.4 | 0 | – | Oc1ccc2c(c1)-c1nc(-c3ccccc3)cc(-c3ccccc3O)c1C2 | 3010 | 2330 | 150 | 3740 | – | – | – | – | – | –
